One series in a line: Water dispersibility. In kind it is physicochemical. The conditions noted are these: distilled water, sonication. How it is done:
About 2 mg of the examined substance was dispersed in 40 mL of distilled water and the suspension was sonicated for 2 min. The addition of water was continued with 10 mL portions, after each portion the mixture was sonicated for 2 min. This process was continued till a homogenous solution was observed by naked eye. Then, the solution was let to stand for an hour to inspect any precipitate formation, but no changes occurred in any of the cases.

A short description of series [1]: Hydrodynamic diameter and colloidal stability of aggregates by dynamic light scattering. In kind it is physicochemical. The conditions noted are these: for mean size (hydrodynamic diameter) / zeta potential: 37 °C; for PDI: sd^2/mean size^2. On the procedure:
In contrary, all spectra gave a hypsochromic shift and loss of fine-structure when the DMSO solutions were diluted with PBS, which refers to the formation of H-type (card-pack) aggregates (Figures S1–S12). Since DMSO-containing aqueous systems are more suitable for biological studies, we examined these solution by dynamic light scattering (DLS) spectroscopy to gain more information about the particles. The concentrations of the examined solutions were the same as used in the ABTS/TEAC measurements (0.3125–5.00 μM, see next section).
Size determination of aggregates and the colloidal stability of the sample dispersions were determined by dynamic light scattering measurements, where the hydrodynamic diameter of particles, and zeta potential values were collected. The number-weighted size distribution indicated one main peak in each case, the polydispersity index (PDI) was calculated as sd^2/mean size^2. For the particle size analysis Malvern Zetasizer Nano S instrument and for the zeta potential determination Malvern Zetasizer Nano Z instrument were used (Malvern Panalytical Ltd., Great Malvern, Worcestershire, UK). The measurements were carried out in autocorrelation mode, and the following parameters were kept constant: scattering angle 173°, attenuator 11 and its factor 0.0146, measurement position 4.65 mm. The concentrations of sample dispersions were between 0.3125 and 5 µM. The dispersion medium was PBS. Each samples was examined after 6 min incubation period at 37 °C.

Series [2] in a line: TEAC assay using ABTS radical. The note with it: 6 min, ratio of slopes to trolox (melatonin dissolved in EtOH); for TEAC from DMSO: stock in DMSO diluted with PBS pH 7.4, 37 °C; for TEAC from THF: stock in THF diluted with PBS pH 7.4, 37 °C. On the procedure: This method uses a redox reaction between ABTS^•+ radical cation and the examined antioxidants, which act as the reducing agents. […] As the carotenoids and the conjugates are poorly soluble in water, they were dissolved first either in small amounts of freshly distilled tetrahydrofuran (THF) or in dimethylsulfoxide (DMSO), and these stock solutions were diluted with phosphate-buffered saline (PBS) to the final nominal concentration.
The TEAC values were determined in isotonic phosphate buffer of pH 7.4. The buffer solution was made by dissolving 9.55 g of DPBS powder in distilled water to form 1L of solution (composition: 0.138 M NaCl, 0.0027 M KCl, 0.0081 M Na2HPO4, 0.0015 M KH2PO4). The assay was performed according to a literature process with slight modifications. The ABTS^•+ radical cation was produced by reacting 7 mM 2,2′-azino-bis(3-ethylbenzothiazoline-6-sulfonic acid) and 2.45 mM potassium persulfate in water. The stock ABTS^•+ solution was prepared 12–16 h before the experiments, and stored at room temperature in dark. The absorbance of the ABTS^•+ solution was set to 0.70 ± 0.05 at 734 nm by a ca. 100-fold dilution with phosphate-buffered saline (PBS). […] The stock solutions were diluted with PBS such that equal amounts of the diluted solutions were added to the ABTS^•+ reagent to obtain final antioxidants concentrations of 0.3125, 0.625, 1.25, 2.50, 3.75, 5 μM, respectively. In the blank (0 μM), the solutions of the antioxidants were substituted with THF or DMSO.
The antioxidants were incubated with ABTS^•+ solution at 37 °C for 6 min. During the reaction of ABTS^•+ with the antioxidants the absorbance of the solution decreases. The percentage inhibition of absorbance at 734 nm was calculated as (A0 − Aantioxidant)/A0, where A0 is the absorbance of the ABTS^•+ solution and Aantioxidant is the absorbance measured after the addition of the antioxidant. The determinations were carried out at each concentration in triplicate. The calculated values were plotted against the final concentration of the antioxidants. The slopes of the curves were compared with that for trolox, the TEAC value is the ratio of the slopes for the antioxidant and for trolox.

The nature of series [3]: FRAP assay for the antioxidant capacity. The note with it: stock in THF, acetate buffer pH 3.0, 37 °C, 15 min; ratio of slopes to trolox (melatonin in EtOH). More on the design: key to FRAP: slope of concentration-absorbance line divided by Trolox slope. On the procedure: In the FRAP method the antioxidant reduces Fe^3+ to Fe^2+ in an acidic medium. These experiments were performed in an acetate buffer of pH 3.0, the stock solutions of the examined antioxidants were prepared in THF. The antioxidant capacities were compared to that of Trolox as a standard, just like in the ABTS assays.
A modified literature process was used. The FRAP reagent should also be prepared freshly each day. 2,4,6-Tris(2-pyridyl)-s-triazin (TPTZ) was dissolved in a 200 mM HCl solution and diluted with water to get a final 40 mM HCl and 10 mM TPTZ concentration. For the preparation of the FRAP reagent 30 mL of 20 mM FeCl3 solution and 30 mL of 10 mM TPTZ solution were mixed, and 300 mL of 300 mM acetate buffer with pH 3.0 was added (a pH lower than usual was used to avoid the precipitation of the TPTZ). The FRAP reagent was incubated at 37 °C for 15 min. 150 μL of antioxidant dissolved in THF was mixed with 2.85 mL FRAP reagent solution, and incubated at 37 °C for 15 min in dark. Measurements were carried out at each antioxidant concentration (0, 7.5; 10; 12.5; 15; 17.5 μM final concentration) in triplicate. In the 0 μM solution the antioxidant solution was substituted with acetate buffer (pH 3.0). The FRAP was determined at 600 nm: the absorbance values were plotted as a function of concentration of the sample compounds and that of Trolox for the standard reference data. The FRAP values were calculated as in the ABTS assays, i.e., the slope of the concentration-absorbance lines for the carotenoid derivatives was divided by that for the trolox.

Series [4] is described as follows: Study of aggregation by UV-Vis spectrophotometry. The conditions noted are these: for change of UV spectrum with increasing ratio of PBS: starting from THF solutions. In kind it is physicochemical. An excerpt: It has been known for a long while that carotenoids or their derivatives can be prone to supramolecular organization in water or water-organic solvent mixtures. This behaviour is especially interesting because this higher organization can modulate or alter biological properties of carotenoids, as well [40]. A tendency to form supramolecular structures can be tested by recording the UV spectra in an organic solvent and increasing the ratio of water in the sample. […] We have some recent experience of such behaviour of carotenoid-flavonoid conjugates.
All of our adducts were tested with the method above using tetrahydrofurane (THF) or dimethylsulfoxide (DMSO) with increasing ratio of phosphate-buffered saline (PBS), which was the medium of the antioxidant measurements. […]
1. Study of Aggregation by UV-Vis Spectrophotometry
Starting from THF solutions: each conjugate was dissolved in freshly distilled THF and the solutions were diluted
either with THF or THF-PBS mixtures to obain final solutions of identical carotenoid concentration. […]
Figure S1. UV-spectra of 8’-apo-β-carotenol succinate ( 6) ( a) in THF and in THF-PBS mixtures ( 1:1 , 1:3); (b) in DMSO
Figure S2. UV-spectra of zeaxanthin bissuccinate ( 7) ( a) in THF and in THF-PBS mixtures ( 1:1 , 1:3); (b) in DMSO and
Figure S3. UV-spectra of zeaxanthin monosuccinate ( 11) ( a) in THF and in THF-PBS mixtures ( 1:1 , 1:3); (b) in DMSO […]

Where [5] appears, read: 0.3125 μM in PBS from DMSO stock.
Where [6] appears, read: 0.625 μM in PBS from DMSO stock.

The term melting point denotes the temperature of the solid-liquid transition.

For the molecule `CC1=C(/C=C/C(C)=C/C=C/C(C)=C/C=C/C=C(C)/C=C/C=C(C)/C=C/C(=O)[C@]2(C)C[C@@H](OC(=O)CCC(=O)O)CC2(C)C)C(C)(C)C[C@H](OC(=O)CCC(=O)O)C1` [Compound 9, Capsanthin bissuccinate], the “Water Dispersibility” value in “Water dispersibility” was “less than 0.6 mg/100 mL”. In addition, the “mean size (hydrodynamic diameter)” value is reported as 241.5 nm in series [1] (setting [5]), 10.71 nm in series [1] (setting [6]), 28.78 nm in series [1] (1.25 μM in PBS from DMSO stock) and 19.31 nm in series [1] (5 μM in PBS from DMSO stock). The zeta potential in series [1] (setting [5]) worked out at 22.6 mV; in series [1] (setting [6]), 20.1 mV; in series [1] (1.25 μM in PBS from DMSO stock) it was 31.0 mV; in series [1] (2.5 μM in PBS from DMSO stock) it was 51.3 mV; in series [1] (3.75 μM in PBS from DMSO stock), 2.7 mV; in series [1] (5 μM in PBS from DMSO stock), 0.0 mV. In addition, the PDI in series [1] (0.3125 μM in PBS) is 0.0186; in series [1] (0.625 μM in PBS), 0.0159; in series [1] (1.25 μM in PBS), 0.0354; in series [1] (5 μM in PBS), 0.0298. In addition, the “TEAC from DMSO” value in series [2] is on record as 1.66. Moreover, the “TEAC from THF” value in series [2] is given as 2.297. Besides, the FRAP in series [3] came out at 0.189. Also, the “change of UV spectrum with increasing ratio of PBS” value in series [4] is given as “did not cause much change”.
As to `COc1ccc2[nH]cc(CCNC(=O)CNC(=O)CCC(=O)O[C@@H]3CC(C)=C(/C=C/C(C)=C/C=C/C(C)=C/C=C/C=C(C)/C=C/C=C(C)/C=C/C(=O)[C@]4(C)C[C@@H](OC(=O)CCC(=O)NCC(=O)NCCc5c[nH]c6ccc(OC)cc56)CC4(C)C)C(C)(C)C3)c2c1` [Compound 17, Capsanthin-dimelatonin conjugate], the melting point fell in the range of 130 to 131 °C. Further, in series [1] (setting [5]), the “mean size (hydrodynamic diameter)” value is recorded as 24.42 nm and the zeta potential is given as −31.0 mV. Also, the PDI in series [1] (0.3125 μM in PBS) stood at 0.0408. Further, in series [1] (setting [6]), the “mean size (hydrodynamic diameter)” value is recorded as 43.47 nm and the zeta potential is −22.9 mV. The molecule also showed a PDI in series [1] (0.625 μM in PBS) of 0.1239. For the same molecule, in series [1] (1.25 μM in PBS from DMSO stock), the “mean size (hydrodynamic diameter)” value turned out to be 101.60 nm and the zeta potential is −21.1 mV. In series [1] (1.25 μM in PBS), this molecule registered a PDI of 0.1362. Further, in series [1] (2.5 μM in PBS from DMSO stock), the “mean size (hydrodynamic diameter)” value was 226.30 nm and the zeta potential is −22.2 mV. The same molecule registered a PDI in series [1] (2.5 μM in PBS) of 0.1650. Further, in series [1] (3.75 μM in PBS from DMSO stock), the “mean size (hydrodynamic diameter)” value came to 58.55 nm and the zeta potential is −27.5 mV. This molecule also displayed a PDI in series [1] (3.75 μM in PBS) of 0.1693. In series [1] (5 μM in PBS from DMSO stock), the “mean size (hydrodynamic diameter)” value was found to be 236.60 nm and the zeta potential is listed as −27.0 mV. This molecule returned a PDI in series [1] (5 μM in PBS) of 0.1273. Further, in series [2], the “TEAC from DMSO” value is reported as 2.53 and the “TEAC from THF” value was determined as 1.519. Further, in series [3], the FRAP amounted to 0.629. Also, the “type of aggregates formed” value in series [4] (from THF:aqueous solutions) is given as “J-type (head-to-tail) aggregates”. Moreover, the “change of UV spectrum with increasing ratio of PBS” value in series [4] is given as “bathochromic shift”.
Molecule `COc1ccc2[nH]cc(CCNC(=O)CNC(=O)CCC(=O)OC/C(C)=C/C=C/C(C)=C/C=C/C=C(C)/C=C/C=C(C)/C=C/C3=C(C)CCCC3(C)C)c2c1` [Compound 18, 8′-Apo-β-carotenol-melatonin conjugate] returned a melting point of 123 to 124 °C. Also, in series [1] (setting [5]), the “mean size (hydrodynamic diameter)” value stood at 148.60 nm and the zeta potential was −22.0 mV. Also, in series [1] (0.3125 μM in PBS), the PDI is 0.0199. In addition, in series [1] (setting [6]), the “mean size (hydrodynamic diameter)” value is recorded as 212.00 nm and the zeta potential was −22.8 mV. In series [1] (0.625 μM in PBS), this molecule had a PDI of 0.0397. Also, in series [1] (1.25 μM in PBS from DMSO stock), the “mean size (hydrodynamic diameter)” value is 127.50 nm and the zeta potential is −24.5 mV. The molecule also registered a PDI in series [1] (1.25 μM in PBS) of 0.0726. Also, in series [1] (2.5 μM in PBS from DMSO stock), the “mean size (hydrodynamic diameter)” value is listed as 93.29 nm and the zeta potential is −29.5 mV. This molecule gave a PDI in series [1] (2.5 μM in PBS) of 0.1229. For the same molecule, in series [1] (3.75 μM in PBS from DMSO stock), the “mean size (hydrodynamic diameter)” value worked out at 182.80 nm and the zeta potential is −31.4 mV. The PDI in series [1] (3.75 μM in PBS) stood at 0.1662. In series [1] (5 μM in PBS from DMSO stock), the “mean size (hydrodynamic diameter)” value is 201.10 nm and the zeta potential is −37.5 mV. The same molecule gave a PDI in series [1] (5 μM in PBS) of 0.1788. Also, in series [2], the “TEAC from DMSO” value is 3.00 and the “TEAC from THF” value worked out at 2.891. The FRAP in series [3] worked out at 0.123. For the same molecule, in series [4], the “change of UV spectrum with increasing ratio of PBS” value is on record as “did not cause much change”.
